{
  "source": "patent US8354265B2",
  "about": "“Chemicals promoting the growth of N-acylhomoserine lactone-degrading bacteria” (Centre National de la Recherche Scientifique, priority 2007, dated 2013)",
  "key": {"[1]": {"tested_on": "bacteria recovered from the consortia", "assay": "NAHL production and inactivation by isolates recovered from the consortia, with rrs identification", "format": "cell-based", "conditions": "for NAHL-producing bacteria among isolates of the consortia: 280 isolates from 280 independent enrichments"}, "[2]": {"tested_on": "bacterial consortia from unplanted soil", "assay": "C6-HSL inactivation by bacterial consortia enriched from unplanted soil on the compound as sole carbon source", "format": "cell-based", "conditions": "soil and rhizospheric samples; among 25 assayed molecules"}, "soil bacterial consortia": {"tested_on": "soil bacterial consortia", "assay": "NAHL (C6-HSL, OC8-HSL) inactivation by soil consortia enriched on second set of compounds", "format": "cell-based", "conditions": "C6-HSL 25 μM or OC8-HSL 200 nM", "experimental": "FIG. 4: Kinetics of NAHL inactivation by bacterial consortia. (A) NAHL is C6-HSL with an initial concentration of 25 μM (B) NAHL is 3-oxo-octanoylhomoserine lactone (OC8-HSL), with an initial concentration of 200 nM. The different bacterial consortia obtained after enrichment on the indicated compounds as a sole carbon source (mannitol is abbreviated as Man) were tested to for their capacity to inactivate NAHL signal. At each time (0, 1, 3 and 5 hrs), the uninoculated control (C) was used to estimate the percentage of residual NAHL.\nNon sterile soil from the CNRS experimental field (Mérantaise) at Gif-sur-Yvette (France) was mixed with sterile sand Loire River and distributed into pots (20 cm in diameter). Some of them were sown with disinfected seeds of Nicotiana tabacum cv. Samson. Pots were randomly placed in the greenhouse (CNRS, Gif-sur-Yvette), under a long day conditions (16 h) at 17° C. (night) and 24° C. (day), and watered daily with tap water. One gram of unplanted or rhizospheric (3-months aged plants) soil was resuspended in 10 mL of sterile 0.8% NaCl. […] After a 3-days incubation at 25° C. under shaking (180 rpm), the cell cultures were diluted (1/50) into fresh AB media for an additional 2-days enrichment step. […]"}, "[3]": {"tested_on": "bacterial consortia originating from rhizospheric soil", "assay": "C6-HSL inactivation by bacterial consortia enriched from rhizospheric soil", "format": "cell-based"}, "bacterial consortia": {"tested_on": "bacterial consortia", "assay": "Inactivation of C6-HSL and OC8-HSL by mannitol, 6CL, GCL and HTN consortia", "format": "cell-based", "description": "(§1) The Mannitol-, 6CL-, GCL-, and HTN-consortia were compared for their capacity to inactivated OC8-HSL, the major NAHL produced by the plant pathogen Erwinia carotovora subsp. atroseptica 6276, as well as for their biocontrol activity against this pathogen in potato maceration assay."}, "[4]": {"tested_on": "Erwinia carotovora subsp. atroseptica 6276", "assay": "Maceration assay on potato tubers (biocontrol activity of consortia)", "format": "in vivo", "conditions": "potato tubers infected with mix of Erwinia carotovora 6276 and consortia", "description": "FIG. 6: Maceration assay on potato tubers.\nas §1"}, "[5]": {"tested_on": "NAHL-degrading bacteria of potato rhizosphere", "assay": "HTN treatment on planted batches (FIG. 9)", "format": "in vivo, Solanum tuberosum", "description": "FIG. 9: Percentage of NAHL-degrading and NAHL-producing strains in potato rhizosphere after treatment with HTN. The percentage of NAHL degraders and NAHL producers was estimated among cultivable bacteria (cfu/g of fresh weight of roots), which were recovered from potato rhizospheres before the treatment (D0; white columns), 14 days (D14; dark grey columns), 28 days (D28; black columns) after the first treatment and 42 days after the first treatment, i.e., 14 days after the second treatment (D42; grey columns). The letters indicate statistically different values (Student's t-test; 0.05).\nThe non sterile batches (40×60×8 cm) contained 13 L of the nutritive solution Hydrobloom (Cellmax, UK) with Nitrogen at 0.80 g/L, Phosphore at 0.56 g/L and Potassium at 1.48 g/L as major components. The solution was diluted from a concentrated stock solution (×250) with non sterile water from the public water system. One hundred plants of Solanum tuberosum var. Allians, which were recovered from cultures performed under sterile conditions, were placed into holes (3 cm space to each other) of batch covers. […] Three samples were analyzed from each batch at each time D0, D14 and D28; from each sample, thirty isolates from TSA plates and thirty fluorescent isolates from King B plates were individually tested from production and inactivation of NAHL signal. […]"}, "[6]": {"tested_on": "NAHL-degrading rhizobacteria", "assay": "Diversity of NAHL-degrading rhizobacteria after HTN treatments, rrs sequencing (Table 3)", "format": "in vivo, Solanum tuberosum", "description": "The 5′-end of the rrs gene was amplified with primers pA (5′-[…]) (SEQ ID NO:1) and 518r (5′-[…]) (SEQ ID NO:2), and sequenced with pA primer by GenomeExpress (Meylan, France). At least 400 bp were submitted to the NCBI database. Although some sequence comparisons authorized identification of isolates at the species level, only the genus level was retained in this study for homogeneity.\nTo analyze the impact of HTN on the diversity of NAHL-degrading strains, 50 NAHL-degrading strains were sampled from the third set of experiments, at the beginning of the experiments (D0) and after 14 and 42 days. The isolates were identified by rrs-sequencing (Table 3). At D0, all of the 5 NAHL-degrading isolates analyzed were identified as Agrobacterium. However, at D14 and D42, the Rhodococcus isolates dominated in treated batches, in which Delftia and Sinorhizobium were also detected"}},
  "note": "“Also recorded” adds a separate entry of the source.",
  "data": [
    {"smiles": "O=C1CCCO1", "note": "[GBL, gamma-butyrolactone]", "values": [
      {"measurement": "NAHL-producing bacteria among isolates of the consortia", "setting": "[1]", "result": "12 % of the tested strains"}
    ]},
    {"smiles": "CCCCC1CCC(=O)O1", "note": "(centres unmarked) [GOL, gamma-octalactone]", "values": [
      {"measurement": "growth stimulation of NAHL-degrading bacteria after enrichment procedures", "setting": "[2]", "result": "stimulated the growth of NAHL-degrading bacteria"},
      {"measurement": "efficiency for obtaining NAHL-degrading consortia (ranking)", "setting": "soil bacterial consortia", "result": "most efficient"}
    ]},
    {"smiles": "CCCC1CCC(=O)O1", "note": "(centres unmarked) [HTN, 4-heptanolide]", "values": [
      {"measurement": "growth stimulation of NAHL-degrading bacteria after enrichment procedures", "setting": "[2]", "result": "stimulated the growth of NAHL-degrading bacteria"},
      {"measurement": "activity of consortia towards C6-HSL (ranking)", "setting": "[3]", "result": "the most active"},
      {"measurement": "efficiency for obtaining NAHL-degrading consortia (ranking)", "setting": "soil bacterial consortia", "result": "most efficient"},
      {"measurement": "NAHL-inactivating bacteria recovered from consortia", "setting": "[1]", "result": "recovered"},
      {"measurement": "NAHL-producing bacteria among isolates of the consortia", "setting": "[1]", "result": "none"},
      {"measurement": "NAHL-degrading isolates belonging to the Rhodococcus genus", "setting": "[1]; HTN consortia, rrs sequence", "result": "All seventeen"},
      {"measurement": "speed of C6-HSL signal inactivation versus Mannitol consortia", "setting": "bacterial consortia", "result": "inactivated more rapidly"},
      {"measurement": "speed of OC8-HSL signal inactivation versus Mannitol consortia", "setting": "bacterial consortia", "result": "inactivated more rapidly"},
      {"measurement": "biocontrol activity of the consortia against E. carotovora 6276", "setting": "[4]", "result": "biocontrol activity was observed; also recorded: showed biocontrol activity"},
      {"measurement": "ability to stimulate the growth of NAHL-degrading bacteria", "setting": "[5]; 0.1 and 0.4 mL/L, second treatment at day 28, D14, D28, D42", "result": "confirmed the ability of HTN to stimulate the growth of NAHL-degrading bacteria"},
      {"measurement": "percentage of NAHL-degrading bacteria among total cultivable bacteria", "setting": "[5]; applied to hydroponic plant cultures (FIG. 9)", "result": "significant increase"},
      {"measurement": "Rhodococcus isolates among NAHL-degrading isolates in treated batches", "setting": "[6]; D14 and D42", "result": "dominated"},
      {"measurement": "rrs-identified NAHL-degraders: Delftia", "setting": "[6]; D 14 and D 42, 0.1 mL/L", "result": 1},
      {"measurement": "rrs-identified NAHL-degraders: Rhodococcus", "setting": "[6]; D 14 and D 42, 0.1 mL/L", "result": 16},
      {"measurement": "rrs-identified NAHL-degraders: Rhodococcus", "setting": "[6]; D 14 and D 42, 0.4 mL/L", "result": 27},
      {"measurement": "rrs-identified NAHL-degraders: Sinorhizobium", "setting": "[6]; D 14 and D 42, 0.4 mL/L", "result": 1}
    ]},
    {"smiles": "OC[C@@H](O)[C@@H](O)[C@H](O)[C@H](O)CO", "note": "[Mannitol, mannitol, reference compound]", "values": [
      {"measurement": "NAHL-producing bacteria among isolates of the consortia", "setting": "[1]", "result": "10 % of the tested strains"},
      {"measurement": "biocontrol activity of the consortia against E. carotovora 6276", "setting": "[4]", "result": "did not"}
    ]},
    {"smiles": "OCC1CCCO1", "note": "(centres unmarked) [THA, tetrahydrofurfuryl alcohol]", "values": [
      {"measurement": "activity of consortia towards C6-HSL (ranking)", "setting": "[3]", "result": "the most active"},
      {"measurement": "NAHL-inactivating bacteria recovered from consortia", "setting": "[1]", "result": "recovered"},
      {"measurement": "NAHL-producing bacteria among isolates of the consortia", "setting": "[1]", "result": "13 % of the tested strains"}
    ]},
    {"smiles": "C1CCOC1", "note": "[THF, tetrahydrofurane]", "values": [
      {"measurement": "NAHL-inactivating bacteria recovered from consortia", "setting": "[1]", "result": "recovered"},
      {"measurement": "NAHL-producing bacteria among isolates of the consortia", "setting": "[1]", "result": "41 % of the tested strains"}
    ]}
  ]
}
